Measured values from US20240083886A1, “HETEROCYCLIC GLP-1 AGONISTS” (Gasherbrum Bio, Inc., priority 2020, published 2024).

molecular target: GLP-1 Receptor (Homo sapiens, UniProt P43220); assay: GLP-1R agonist cAMP stimulation assay; format: cell-based; settings: not given
How it was run: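 HEK293/CRE-Luc cells stably expressing GLP-1R, 1000 cells/well in DPBS with 0.5 mM IBMX and 0.1% BSA, exposed to ½-log compound dilutions 30 min at 37 °C. cAMP measured by HTRF (665/615 nm) after 1 h at room temperature. % activity normalised between vehicle and MAX controls.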

GLP-1 Receptor, sequence (P43220 24-463, species assumed): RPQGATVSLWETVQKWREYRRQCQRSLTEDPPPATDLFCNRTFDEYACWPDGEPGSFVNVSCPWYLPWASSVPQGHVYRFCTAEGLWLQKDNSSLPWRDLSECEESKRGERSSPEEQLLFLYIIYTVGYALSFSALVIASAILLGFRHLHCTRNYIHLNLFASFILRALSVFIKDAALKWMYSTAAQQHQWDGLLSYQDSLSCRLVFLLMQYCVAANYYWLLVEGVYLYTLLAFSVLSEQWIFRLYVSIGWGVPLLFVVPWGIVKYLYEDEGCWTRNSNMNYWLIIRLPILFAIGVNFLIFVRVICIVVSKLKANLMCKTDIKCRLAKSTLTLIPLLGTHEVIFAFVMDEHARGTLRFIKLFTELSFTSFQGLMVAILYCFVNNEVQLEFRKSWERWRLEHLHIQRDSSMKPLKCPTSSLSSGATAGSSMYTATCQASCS

Row | Structure (SMILES) | EC50
1 | Cc1ccc(-c2ccc3c(c2)nc(CN2CCC(Oc4ccnc(Cc5ccc(Cl)cc5)n4)CC2)n3C[C@@H]2CCO2)nn1 [Compound 124a, 2-{[4-({2-[(4-chlorophenyl)methyl]pyrimidin-4-yl}oxy)piperidin-1-yl]methyl}-5-(6-methylpyridazin-3-yl)-1-{[(2S)-oxetan-2-yl]methyl}-1H-1,3-benzodiazole] | 0.59 nM
2 | FC(F)(F)c1nnc(-c2cnc3c(c2)nc(CN2CCC(Oc4ccnc(Cc5ccc(Cl)cc5)n4)CC2)n3C[C@@H]2CCO2)[nH]1 [Compound 120a, 2-[(4-chlorophenyl)methyl]-4-({1-[(3-{[(2S)-oxetan-2-yl]methyl}-6-[5-(trifluoromethyl)-4H-1,2,4-triazol-3-yl]-3H-imidazo[4,5-b]pyridin-2-yl)methyl]piperidin-4-yl}oxy)pyrimidine] | 0.17 nM

The next lines start with the values.

Row | EC50 | Structure (SMILES)
3 | 0.13 nM | Cc1nnc(-c2cc3nc(CN4CCC(Oc5nc(Cc6ccc(Cl)cc6F)ncc5F)CC4)n(C[C@@H]4CCO4)c3cn2)[nH]1 [Compound 170a, 2-[(4-chloro-2-fluorophenyl)methyl]-5-fluoro-4-[(1-{[6-(5-methyl-4H-1,2,4-triazol-3-yl)-3-{[(2S)-oxetan-2-yl]methyl}-3H-imidazo[4,5-c]pyridin-2-yl]methyl}piperidin-4-yl)oxy]pyrimidine]
4 | 0.036 nM | FC(F)(F)c1nnc(-c2cc3nc(CN4CCC(Oc5ccnc(Cc6ccc(Cl)cc6)n5)CC4)n(C[C@@H]4CCO4)c3cn2)[nH]1 [Compound 150a, 2-[(4-chlorophenyl)methyl]-4-({1-[(3-{[(2S)-oxetan-2-yl]methyl}-6-[5-(trifluoromethyl)-4H-1,2,4-triazol-3-yl]-3H-imidazo[4,5-c]pyridin-2-yl)methyl]piperidin-4-yl}oxy)pyrimidine]

same assay, conditions: HEK293/GLP1R/CRE-LUC cells, cAMP dynamic 2 Kit (Cisbio), 30 min incubation at 37° C.; read-out: EC50

Row | EC50 | Structure (SMILES)
5 | 0.81 nM | Fc1cnc(Cc2ccc(Cl)cc2)nc1O[C@H]1CC[C@H](Cc2nc3cc(-c4nnc(C(F)(F)F)[nH]4)ccc3n2C[C@@H]2CCO2)CC1 [Compound 173a, 1-{[(2S)-oxetan-2-yl]methyl}-2-{[(1r,4r)-4-({2-[(4-chlorophenyl)methyl]-5-fluoropyrimidin-4-yl}oxy)cyclohexyl]methyl}-5-[5-(trifluoromethyl)-4H-1,2,4-triazol-3-yl]-1H-1,3-benzodiazole]
6 | 0.37 nM | COc1ccc(C(=O)Nc2ccc3c(c2)nc(CN2CCC(Oc4ccnc(Cc5ccc(Cl)cc5F)n4)CC2)n3C[C@@H]2CCO2)cn1 [Compound 112a, N-(2-{[4-({2-[(4-chloro-2-fluorophenyl)methyl]pyrimidin-4-yl}oxy)piperidin-1-yl]methyl}-1-{[(2S)-oxetan-2-yl]methyl}-1H-1,3-benzodiazol-5-yl)-6-methoxypyridine-3-carboxamide]
7 | 11 nM | Fc1cnc(Cc2ccc(Cl)cc2)nc1OC1CCN(Cc2nc3cc(-c4nnc(C(F)(F)F)[nH]4)ccc3n2C[C@H]2CCOC2)CC1 [Compound 147a, 2-{[4-({2-[(4-chlorophenyl)methyl]-5-fluoropyrimidin-4-yl}oxy)piperidin-1-yl]methyl}-1-{[(3R)-oxolan-3-yl]methyl}-5-[5-(trifluoromethyl)-4H-1,2,4-triazol-3-yl]-1H-1,3-benzodiazole]
8 | 0.081 nM | Cc1cncc(C(=O)Nc2ccc3c(c2)nc(CN2CCC(Oc4ccnc(Cc5ccc(Cl)cc5)n4)CC2)n3C[C@@H]2CCO2)c1 [Compound 101a, N-(2-{[4-({2-[(4-chlorophenyl)methyl]pyrimidin-4-yl}oxy)piperidin-1-yl]methyl}-1-{[(2S)-oxetan-2-yl]methyl}-1H-1,3-benzodiazol-5-yl)-5-methylpyridine-3-carboxamide]
9 | 1.8 nM | O=c1[nH]c(-c2cnc3c(c2)nc(CN2CCC(Oc4ccnc(Cc5ccc(Cl)cc5)n4)CC2)n3C[C@@H]2CCO2)no1 [Compound 144a, 3-(2-{[4-({2-[(4-chlorophenyl)methyl]pyrimidin-4-yl}oxy)piperidin-1-yl]methyl}-3-{[(2S)-oxetan-2-yl]methyl}-3H-imidazo[4,5-b]pyridin-6-yl)-4,5-dihydro-1,2,4-oxadiazol-5-one]
